# Measurements published in patent publication US20080255150A1, “Novel Compounds” (ASTRAZENECA AB, priority 2005, published 2008).
# Molecular target: T1, rhCRTh2 (Homo sapiens, UniProt Q9Y5Y4)
# T1 construct: expressed in transfected cells; expression induced with sodium butyrate; membrane preparation
# T1 sequence (Q9Y5Y4 1-395): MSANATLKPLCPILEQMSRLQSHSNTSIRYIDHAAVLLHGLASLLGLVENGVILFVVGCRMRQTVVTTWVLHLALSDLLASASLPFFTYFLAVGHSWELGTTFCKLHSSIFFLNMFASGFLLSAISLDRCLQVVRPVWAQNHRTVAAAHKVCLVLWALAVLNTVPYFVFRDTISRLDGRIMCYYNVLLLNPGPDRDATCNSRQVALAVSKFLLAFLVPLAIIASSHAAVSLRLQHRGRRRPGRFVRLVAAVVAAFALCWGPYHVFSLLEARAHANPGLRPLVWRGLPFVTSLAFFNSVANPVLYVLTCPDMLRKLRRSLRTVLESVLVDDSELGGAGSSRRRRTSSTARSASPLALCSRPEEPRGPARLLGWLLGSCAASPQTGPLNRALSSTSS
# Assay: Ligand binding assay, [3H]PGD2 SPA on HEK cell membranes
# Details: [3H]PGD2 displacement; membranes of HEK cells expressing rhCRTh2/Gα16; SPA beads; 2 h at RT; read-out: pIC50 value (converted)
# Experimental: [^3H]PGD2 was purchased from Perkin Elmer Life Sciences with a specific activity of 100-210 Ci/mmol. All other chemicals were of analytical grade.
# HEK cells expressing rhCRTh2/Gα16 were routinely maintained in DMEM containing 10% Foetal Bovine Serum (HyClone), 1 mg/ml geneticin, 2 mM L-glutamine and 1% non-essential amino acids. For the preparation of membranes, the adherent transfected HEK cells were grown to confluence in two layer tissue culture factories (Fisher, catalogue number TKT-170-070E). Maximal levels of receptor expression were induced by addition of […] sodium butyrate for the last 18 h of culture. The adherent cells were washed once with phosphate buffered saline (PBS, 50 ml per cell factory) and detached by the addition of 50 ml per cell factory of ice-cold membrane homogenisation buffer [20 mM HEPES (pH 7.4), 0.1 mM dithiothreitol, 1 mM EDTA, 0.1 mM phenyl methyl sulphonyl fluoride and 100 μg/ml bacitracin]. […] The final pellet was re-suspended in 4 ml of membrane homogenisation buffer per cell factory used and the protein content determined. […]
# All assays were performed in Corning clear bottomed, white 96-well NBS plates (Fisher). […] (The optimum coating concentrations were determined for each batch of membranes) The beads were pelleted by centrifugation (800×g for 7 minutes at 4° C.), washed once with assay buffer (50 mM HEPES pH 7.4 containing 5 mM magnesium chloride) and finally re-suspended in assay buffer at a bead concentration of 10 mg/ml.
# Each assay contained 20 μl of 6.25 nM [^3H]PGD2, 20 μl membrane saturated SPA beads both in assay buffer and 10 μl of compound solution or 13,14-dihydro-15-keto prostaglandin D2 (DK-PGD2, for determination of non-specific binding, Cayman chemical company). […] The assay plate was incubated at RT for 2 h and counted on a Wallac Microbeta liquid scintillation counter (1 minute per well).
row,Structure (SMILES),IC50 [µM]
1,"C[C@H]1CN(Cc2cc(Cl)ccc2CCC(=O)O)CCN1C(=O)Cc1ccccc1 [Example 4, 3-(4-chloro-2-{[(3S)-3-methyl-4-(phenylacetyl)piperazin-1-yl]methyl}phenyl)propanoic acid]",0.0794
2,"C[C@H]1CN(Cc2cc(Cl)ccc2CC(=O)O)CCN1C(=O)Cc1ccc(F)cc1F [Example 12, [4-chloro-2-({(3S)-4-[(2,4-difluorophenyl)acetyl]-3-methylpiperazin-1-yl}methyl)phenyl]acetic acid]",0.00794
3,"C[C@H]1CN(Cc2cc(Cl)ccc2CC(=O)O)CCN1S(=O)(=O)c1ccccc1 [Example 9, (4-chloro-2-{[(3S)-3-methyl-4-(phenylsulfonyl)piperazin-1-yl]methyl}phenyl)acetic acid]",0.0141
